Measured values from EP0135429B1, “The synthesis of cyclopropane amino acids and peptides” (THE UNIVERSITY OF GEORGIA RESEARCH FOUNDATION, INC., priority 1983, dated 1992).
Peptide text beside a SMILES is read from it.

Tests used:
[1] = test system: intestinal enzymes such as carboxypeptidase and chymotrypsin; assay: hydrolysis in the gastrointestinal tract or blood of the consumer; type: in vivo; conditions: after drinking a sweetened beverage
α-chymotrypsin = α-chymotrypsin (Bos taurus, UniProt P00766); conditions: after 15 minutes at room temperature; 10:1 substrate:enzyme; 0.5 M ammonium acetate, pH 8

does not hydrolyze cleave or break down in the gastrointestinal tract or blood [1]	Structure (SMILES)	hydrolysis by α-chymotrypsin (α-chymotrypsin)
at least 24 hours	COC(=O)[C@H](Cc1ccccc1)NC(=O)C1(N)CC1C(=O)O (some centres unmarked) [Example XXXVIII, 1-Aminocyclopropane-2-carboxylic Acid-1-carboxyl Phenylalanine Methyl Ester]	
	COC(=O)[C@H](Cc1ccccc1)NC(=O)[C@@H](N)CC(=O)O [aspartame] (H-Asp-Phe-OMe)	hydrolyzed
